Test results as given in patent US20210379199A1, “COPPER NANOCLUSTERS, COMPOSITION COMPRISING THE SAME, AND TREATMENT OF NEURODEGENERATIVE DISEASES” (Shenzhen Profound-View Pharma Tech Co., Ltd, priority 2019, published 2021).

Key:
α-syn = molecular target: T1, α-syn (Homo sapiens, UniProt P37840); assay: α-syn aggregation kinetics, ThT fluorescent labeling; assay type: biochemical; conditions: 35 μM α-syn, 5 ppm CuNCs or ligand alone, 37° C., 70 hours
T1 construct: purchased Bachem Corp
Method: CuNCs modified with different ligands were prepared according to literatures. Thioflavin T (abbreviation: ThT) is a highly sensitive fluorescent marker used to identify the presence of amyloid. […] When ThT encounters amyloid polypeptide or protein with a fiber structure, it will immediately adjacent to the amyloid polypeptides or proteins and its fluorescence intensity will increase exponentially. Therefore, ThT is widely used as a maker to monitor amyloidosis of peptides or proteins. This embodiment adopts ThT fluorescent labeling method to monitor the kinetics process of fibrosis aggregation of α-syn in the presence of CuNCs. The specific experiment method is as follows.
Pretreatment of α-syn monomers: Dissolve freeze-dried α-syn powder (Bachem Corp.) in HFIP to obtain a 1 g/L α-syn solution. […]
Sample preparation and detection: Add ligand modified CuNCs to α-syn PBS solution to reach final concentrations of 5 ppm and 35 μM for CuNCs and α-syn, respectively. Incubate the solution continuously in a 96-well plate at 37° C., monitor the fluorescence intensity by microplate reader every 10 minutes, and characterize the kinetics process of α-syn aggregation through the change of fluorescence intensity of ThT. […]

RGC-5 cells = assay: H2O2-induced glaucoma cell (RGC-5) model, CCK-8 cell viability; assay type: cell-based; conditions: 20 ppm of GSH and 100 μM of H2O2, 24 hours
Method: RGC-5 cells in logarithmic growth phase were diluted with complete medium (DMEM medium+10% FBS+1% penicillin-streptomycin) into a cell suspension with a density of 5×10^4/mL, inoculated with 100 μL per well in 96-well plates. The cells were cultured at 37° C. in a 5% CO2 incubator. After the cells were attached, the original culture solution was discarded, and 50 μL of different concentrations of CuNCs prepared from maintenance medium (DMEM medium+2% FBS+1% penicillin-streptomycin) were added to different wells. The final concentrations were 0.5, 5 and 20 ppm respectively (i.e. groups 5, 6, 7 respectively in FIG. 19). After pretreatment for 2 h, about 50 μL of H2O2 (final concentration of 105 μM) was added. The cells were incubated for 24 h, and 10% CCK-8 was added to each well for 4 h. The absorbance values of the respective wells were measured at the wavelength of 450 nm to evaluate the protection effect of CuNCs against H2O2-induced damages. In the above experiments, provided were a blank control group in which cells were not treated, a model control group in which cells were treated with 105 μM H2O2, a CuNCs control group in which 100 ppm of CuNCs were added but no H2O2 was added, and a ligand control group in which 20 ppm ligand and 105 μM H2O2 were added (i.e. groups 1, 2, 3, 4 respectively in FIG. 19).

SH-sy5y cells = assay: MPP+ induced PD cells (SH-sy5y) model, CCK-8 cell viability; conditions: 1 mM MPP+, ligand 20 ppm, 24 h
Method: 1) Take SH-sy5y cells in the logarithmic growth phase. Dilute them with complete medium to form a cell suspension with a cell density of 5×10^4/mL. Plate 200 μl of the cell suspension into each well of a 96-well plate and cultivate in an environment of 37° C. and 5% CO2 in an incubator. The sample is added after the cells are attached.
2) Add 100 μL of ligand-modified CuNCs samples or ligand-modified copper nanoparticles samples with different particle sizes, which are prepared using maintenance medium to make the final concentration being 0.1 ppm, 1 ppm, 5 ppm, 10 ppm and 20 ppm, respectively. After 2 hours of pretreatment with ligand-modified CuNCs, the different groups of cells were added with MPP^+ (final concentration is 1 mM). […] Then the cells were cultured at 37° C. for 24 h. After centrifugation to remove the culture medium, 100 μL maintenance medium containing 10% CCK-8 were added to each well, and then incubate for 4 h. The absorbance of each well was then measured at 450 nm. The absorbance could reflect the pre-protective and curative effects of ligand-modified CuNCs against MPP^+ lesion.

N[C@@H](CCC(=O)N[C@@H](CS)C(=O)NCC(=O)O)C(=O)O [GSH, L-glutathione]
α-syn aggregation and fibrosis (ThT fluorescence intensity) (α-syn): does not have an obvious effect | cell viability, ligand control group (RGC-5 cells): 56.5±5.9% | cell viability, ligand control group (SH-sy5y cells): 56.9±3.4%
